Source: ChEMBL document CHEMBL1140774, “Sterol C24-methyltransferase: mechanistic studies of the C-methylation reaction with 24-fluorocycloartenol” (Bioorg Med Chem Lett, 2008)

Tested on: Glycine max
Test: Activity of soybean recombinant SMT1

Km: 30 µM
kcat: 0.6 min⁻¹
SMILES: CC(C)=CCC[C@@H](C)[C@H]1CC[C@@]2(C)[C@@H]3CC[C@H]4C(C)(C)[C@@H](O)CC[C@@]45C[C@@]35CC[C@]12C
